Measured values: patent EP3006939A1, “Histidine-rich Glycoprotein as a marker for hepatic Farnesoid X receptor activation” (Gilead Sciences, Inc., priority 2014, dated 2016)
Values joined by “and” are separate entries in the source; they are usually repeats but may differ in a detail not shown here. Identical values can stand only once. “Also recorded” adds a separate entry of the source. Like-named read-outs stand apart in the source and are kept apart here.

Tests used:
HepaRG cells = assay: Microarray experiment, genome wide mRNA array analysis; format: cell-based, human; conditions: 1 µM, 24 hours, vs DMSO vehicle; for Fold changes to "DMSO", TBP mRNA: control gene
Method: HepaRG cells were obtained plated from Biopredic International (# HPR203-MW96, Rennes, France) and cultivated in 6-well plates using the media and protocol supplied by the manufacturer. Cells were cultivated in induction medium (Biopredic International) with 1 µM of PX20350 (E. Hambruch et al., J. Pharmacol. Exp. Ther. 2012, 343, 556) diluted from a 20 mM stock solution in DMSO or DMSO as a vehicle control for 24 hours. Total RNA was isolated following the instructions of the RNeasy 96 RNA isolation kit (Qiagen, Hilde, Germany) and 200 ng total RNA used for a genome wide mRNA array analysis done as a fee for service at the Genomics & Pro-teomics Core Facility of the German Research Facility using the human Sentrix-6 V3 (4213572043) array from Illumina and standard experimental kits and protocols supplied by the manufacturer (Illumina Inc. San Diego U.S.A.).
This upregulation was similar to that (2.7 fold) of the known direct FXR target gene NR0B2 (SHP, Small heterodimer partner). In comparison, TBP mRNA (TATA box binding protein) was not changed in relative abundance (Table 1).

HepG2-FXR5 cells [1] = assay: Detection of secreted HRG in cell supernatant by Ni-NTA agarose collection and Western blot; format: cell-based, human; conditions: 1 µM, 48 hours, vs DMSO, Western blot
Method: HepG2-FXR5 cells (described in U. Deuschle et al., PLoS One. 2012, 7, e43044) were cultivated in T75 flasks in RPMI medium supplemented with 0,2% BSA, 2 mM L-Alanyl-L-Glutamine (Sigma-Aldrich, Munich, Germany) and 1x Insulin-Transferrin-Selenium (#51500-056, Life Technolgies, Carlsbad, USA). Each 10 ml supernatant from cells grown in presence of 1 µM PX20606 or DMSO as vehicle for 48 hours were mixed with 100 µL Ni-NTA agarose slurry (#1018240, Qiagen, Hilden, Germany) for 1 h, the slurry was collected by centrifugation and after 3 washes with 10 mL 1xPBS resuspended in 100 µL SDS sample buffer. Western blot was performed (as described in U. Deuschle et al., PLoS One 2012, 7, e43044) and HRG detected using polyclonal mouse-anti human HRG antibodies (ab67807, Abcam, Cambridge, UK).

[2] = tested on: human primary Upcyte® Hepatocytes; assay: Induction of HRG transcription, RT-qPCR normalized to TBP; format: cell-based; conditions: Hepatocyte, 24 hours
Method: (§1) Huh7 (# JCRB0403) cells were obtained from the Health Science Research Resources Bank, Osaka, Japan. Cells were cultivated in MEM containing 8.6% FCS supplemented with 2 mM L-Alanyl-L-Glutamine (all purchased via Sigma-Aldrich, Munich, Germany) in presence of 1 µM of PX20606 or DMSO as a vehicle for 16 hours. Total RNA from cells grown in 96 well tissue plates (Huh7, HepaRG and 3D human liver microtisues) were isolated following the instructions of the RNeasy 96 RNA isolation kit (Qiagen, Hilde, Germany) and cDNA's were synthesized from 1/25th of the isolated total RNA from one 96 well using Superscript II reverse Transcriptase (Life Technologies, Carlsbad, U.S.A.). Quantitative PCR was performed and analyzed using Absolute QPCR Rox Mix (Life Technologies, Carlsbad, U.S.A.) and a 384-format ABI 7900HT Sequence Detection System (Applied Biosystems, Darmstadt, Germany). Gene expression was expressed in arbitrary units and normalized relative to the housekeeping gene TATA box binding protein (TBP). The TBP normalized mRNA levels were plotted for HRG and SHP in Figure 1 (number of replicates n = 6). […]
Upcyte® hepatocytes (Cat# UH0-000-KA00 donor 10-03) derived from primary hepatocytes of a donor were cultivated in 96 well plates in high performance medium (Medicyte, Heidel-berg, Germany). Isolation of total RNA followed by quantitative qPCR was done as described in Example 2.

[3] = tested on: Huh7 human hepatoma cells; assay: Induction of HRG and SHP mRNAs, RT-qPCR normalized to TBP; format: cell-based; conditions: Huh-7, 16 hours
Method: Huh7 (# JCRB0403) cells were obtained from the Health Science Research Resources Bank, Osaka, Japan. Cells were cultivated in MEM containing 8.6% FCS supplemented with 2 mM L-Alanyl-L-Glutamine (all purchased via Sigma-Aldrich, Munich, Germany) in presence of 1 µM of PX20606 or DMSO as a vehicle for 16 hours. Total RNA from cells grown in 96 well tissue plates (Huh7, HepaRG and 3D human liver microtisues) were isolated following the instructions of the RNeasy 96 RNA isolation kit (Qiagen, Hilde, Germany) and cDNA's were synthesized from 1/25th of the isolated total RNA from one 96 well using Superscript II reverse Transcriptase (Life Technologies, Carlsbad, U.S.A.). Quantitative PCR was performed and analyzed using Absolute QPCR Rox Mix (Life Technologies, Carlsbad, U.S.A.) and a 384-format ABI 7900HT Sequence Detection System (Applied Biosystems, Darmstadt, Germany). Gene expression was expressed in arbitrary units and normalized relative to the housekeeping gene TATA box binding protein (TBP). The TBP normalized mRNA levels were plotted for HRG and SHP in Figure 1 (number of replicates n = 6). Table 2: Primer and probe sequences.

human FXR = target: T1, human FXR (Homo sapiens, UniProt Q96RI1); assay: Luciferase reporter assay with human HRG promoter fragment in Huh7 cells co-transfected with an FXR expression plasmid; format: cell-based; conditions: FXR exogenously expressed, 1 µM, 16 h
T1 sequence (Q96RI1 1-486): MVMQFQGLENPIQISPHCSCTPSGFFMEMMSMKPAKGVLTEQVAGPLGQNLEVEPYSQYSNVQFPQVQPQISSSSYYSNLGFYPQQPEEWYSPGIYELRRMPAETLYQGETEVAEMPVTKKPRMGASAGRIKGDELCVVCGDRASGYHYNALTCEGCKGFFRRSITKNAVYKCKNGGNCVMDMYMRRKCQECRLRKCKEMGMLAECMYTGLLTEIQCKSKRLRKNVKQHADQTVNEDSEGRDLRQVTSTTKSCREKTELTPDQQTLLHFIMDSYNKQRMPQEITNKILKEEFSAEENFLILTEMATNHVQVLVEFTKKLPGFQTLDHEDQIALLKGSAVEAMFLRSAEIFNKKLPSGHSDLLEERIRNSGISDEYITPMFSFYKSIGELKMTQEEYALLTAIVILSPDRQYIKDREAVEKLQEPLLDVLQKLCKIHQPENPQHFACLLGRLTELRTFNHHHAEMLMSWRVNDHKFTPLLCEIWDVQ
Text: A human HRG promoter fragment was cloned as a Xhol-Hindlll fragment (from position -1,973 till +8 with respect to the mRNA starting nucleotide at +1) using the oligonucleotides […] (SEQ ID No. 10) and […] (SEQ ID No. 11) into the Xhol and Hindlll sites of pGL2basic (Promega, Madison, U.S.A.). The IR1 and ER2 sites were mutated using the primers of Table 3. Table 3: Primer sequences
The reporter plasmids pGL2-FXR-RE (FXR-RE), pGL2-PHRG (wt), pGL2-PHRG-IR1mut (IR1mut) and pGL2-PHRG-ER2mut (ER2mut) and pGL2-PHRG-IR1/ER2 (DM) (each 50 ng/well), were co-transfected with pTRex-Dest30-hFXR (20 ng/well) and pCMV-RL (5 ng/well, constitutively expressing the Renilla luciferase under control of a CMV promotor as an internal control) into Huh7 cells using lipofection with Polyethylenimine and cultivated in presence or absence of 1 µM of the FXR agonist PX20606 or DMSO as a vehicle control for 16 h followed by cell lysis and determination of luciferase activities as described in U. Deuschle et al., PLoS One 2012, 7, e43044.

HepG2-FXR5 cells [4] = assay: Induction of HRG transcription, RT-qPCR normalized to TBP; format: cell-based; conditions: Homo sapiens, 24 hours
Method: as §1, with “(TBP).” for “(TBP). The TBP normalized mRNA levels were plotted for HRG and SHP in Figure 1 (number of replicates n = 6).”
HepG2-FXR5 cells (described in U. Deuschle et al., PLoS One. 2012, 7, e43044) were cultivated in 96 well plates in RPMI medium supplemented with 8.6% FCS and supplemented with 2 mM L-Alanyl-L-Glutamine (all purchased via Sigma-Aldrich, Munich, Germany). Isolation of total RNA followed by quantitative qPCR was done as described in Example 2.

[5] = read-out: HRG mRNA upregulated compared to DMSO
[6] = read-out: known direct FXR target gene (SHP mRNA) upregulated compared to DMSO

CN(Cc1ccc(C(=O)O)cc1)c1ccc(OCc2c(-c3c(Cl)cccc3Cl)noc2C2CC2)nc1C(F)(F)F [PX20350]
Fold changes to "DMSO", NR0B2 (SHP) mRNA (HepaRG cells): 2.7 fold | Fold changes to "DMSO", HRG mRNA (HepaRG cells; 1440 min): 2 fold and 2.0 fold | Fold changes to "DMSO", TBP mRNA (HepaRG cells): not changed | Fold changes to "DMSO", TBP mRNA (HepaRG cells; 1440 min): 1.0

O=C(O)c1ccc(C2CC2c2ccc(OCc3c(-c4c(Cl)cccc4Cl)noc3C3CC3)cc2Cl)cc1 (centres unmarked) [PX20606, 4-(2-(2-chloro-4-((5-cyclopropyl-3-(2,6-dichlorophenyl)isoxazol-4-yl)methoxy)phenyl)cyclopropyl)benzoic acid]
amount of secreted HRG (HepG2-FXR5 cells [1]): increased; also recorded: up-regulated | fold induction at 1 µM [2, 5]: ~11 | fold induction at 1 µM [2, 6]: ~10 | fold induction at 1 µM [3, 5]: ~3.5 | fold induction at 1 µM [3, 6]: ~4 | activity of HRG promoter with mutated ER-2 site, luciferase reporter (human FXR): loss of FXR/FXR agonist responsitivity | activity of HRG promoter with mutated IR-1 site, luciferase reporter (human FXR): reduce the activity | activity of HRG promoter (wt, -1973 to +8) luciferase reporter (human FXR; vs DMSO): active | fold induction at 1 µM (HepG2-FXR5 cells [4]; [5]): ~20 | fold induction at 1 µM (HepG2-FXR5 cells [4]; [6]): ~6
